Experimental data from US5773424A, “Treatment of toxoplasmosis” (priority 1994, dated 1998).
Where two headings read alike, the source gives them in different places.

Target: T. gondii adenosine kinase (Toxoplasma gondii, UniProt Q9TVW2)
Experiment: biochemical
Conditions: for Decrease in binding to T. gondii adenosine kinase: relative to reference compound adenosine; for inhibition at 1000 µM: read-out: Inhibition of T. gondii adenosine kinase
Protocol: Preparation of cytosol extracts. For the structure activity relationships studies, approximately 5×10^8 T. gondii were suspended in 1.2 ml of 50 mM N-2-hydroxyethylpiperazine-N'-2-ethanesulfonic acid (HEPES)-Cl (pH 8.0)/1 mM dithiothreitol and homogenized for 30 seconds at setting 10, using a Brinnmann Instruments Polytron homogenizer fitted with a PTA 7K1 probe. The homogenate was then centrifuged at approximately 116,000 g for 1 hour at 5° and the supernatant (cytosol extract) collected and used as the enzyme source. Fresh cytosol extracts were prepared for each experiment.
Adenosine kinase assay. T. gondii adenosine kinase activity was measured by following the formation of [^14 C]AMP from [^14 C]adenosine and ATP. […] Therefore, the standard reaction mixture contained 50 mM HEPES-Cl (pH 8.0), 1 mM dithiothreitol, 5 μM [8-^14 C]adenosine (45 Ci/mol), 0.5 mM ATP, 0.5 mM MgCl2, 25 μM (+)-EHNA or 100 μM (±)-EHNA,10-30 μl of cytosol extract (approximately 3-10 μg of protein), and either 0, 0.1, 0.25, 0.5 or 1.0 mM of the compound to be tested, in a final volume of 150 μl.
Reactions were started by the addition of [8-^14 C]adenosine, incubated at 37° for 10 minutes and terminated by placing the reaction tubes in a boiling water bath for 2 minutes. Precipitated proteins were removed by centrifugation in a microcentrifuge (approximately 13,000 g) for 5 minutes, and a 15 μl aliquot of the resulting supernatant was mixed with 5 μl of a solution containing 10 mM each of AMP and adenosine. This mixture was then spotted on silica gel thin layer chromatography plates which were developed with a mixture of chloroform/methanol/acetic acid (16:3:1). […] The substrate and product spots (which accounted for all of the radioactivity on the plates) were identified by UV quenching, cut out, and the radioactivity quantitated by liquid scintillation counting in 20 ml of Scintilene, using a Packard 460 scintillation counter. […] Enzyme velocity was calculated by multiplying the fraction of AMP formed from adenosine times the amount of adenosine in the assay, and dividing by the incubation time.
Determination and significance of AppKi values. AppKi values were used to determine the relative degree of binding of compounds to adenosine kinase as compared to adenosine. AppKi values were estimated from Dixon plots of the data (1/.nu. versus [I]), using a computer program with least squares fitting according to the general principles of Cleland (Cleland, W W, The statistical analysis of enzyme kinetic data. Adv. Enzymol. 29:1-32, 1967). The program was written by Dr. Sungman Cha (Brown University, Providence, R.I.) and modified to fit IBM BASIC by Dr. Fardos N. M. Naguib. […] It should be noted, however, that the type of inhibition (i.e., competitive, noncompetitive, or uncompetitive) produced by the compounds was not determined, nor were the compounds evaluated as substrates for T. gondii adenosine kinase.

[1] = AppKi for inhibition of T. gondii adenosine kinase, 5 μM adenosine, ± range, at least two estimations

Sequence of T. gondii adenosine kinase (Q9TVW2 whole entry): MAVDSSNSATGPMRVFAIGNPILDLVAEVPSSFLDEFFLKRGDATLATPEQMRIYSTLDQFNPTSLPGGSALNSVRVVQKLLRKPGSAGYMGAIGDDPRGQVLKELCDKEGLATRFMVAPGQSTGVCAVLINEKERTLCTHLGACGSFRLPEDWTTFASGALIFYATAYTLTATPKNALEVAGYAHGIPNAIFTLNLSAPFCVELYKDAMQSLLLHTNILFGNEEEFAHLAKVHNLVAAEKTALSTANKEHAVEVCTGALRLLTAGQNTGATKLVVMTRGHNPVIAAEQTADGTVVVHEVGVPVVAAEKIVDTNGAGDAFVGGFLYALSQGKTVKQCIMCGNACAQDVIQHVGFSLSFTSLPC

NNc1ncnc2c1ccn2[C@@H]1O[C@H](CO)[C@@H](O)[C@H]1O [Compound 69, 6-Hydrazino-7-deazapurine riboside]
Ki: 180 ± 10 µM

NC(=O)c1cn([C@@H]2O[C@H](CO)C[C@H]2O)c2ncnc(N)c12 [Compound 120, 7-Deaza-7-carboxamido-3'-deoxyadenosine (3'-Deoxysangivamycin)]
Ki [1]: 110 ± 20 µM | Reduction of binding to T. gondii adenosine kinase (relative to sangivamycin): 2 fold

Nc1c2ncn([C@@H]3O[C@H](CO)[C@@H](O)[C@H]3O)c2nc[n+]1[O-] [Compound 4]
Ki: 1230 µM

Nc1ncnc2c1ncn2[C@H]1C[C@H](O)[C@@H](CO)O1 [Compound 87, 2'-Deoxyadenosine]
Ki: 4200 µM | Decrease in binding to T. gondii adenosine kinase: 600 fold

CNc1ncnc2c1ncn2[C@@H]1O[C@H](CO)[C@@H](O)[C@H]1O [Compound 26]
Ki [1]: 23 ± 1 µM

OC[C@H]1O[C@@H](n2cnc3cncnc32)[C@H](O)[C@@H]1O [Compound 11]
Ki [1]: 170 ± 20 µM

Nc1ncnc2nc[nH]c12 [Compound 115, Adenine]
Ki: 6500 µM | Decrease in binding to T. gondii adenosine kinase: 930 fold

Nc1ncnc2c1ncn2[C@@H]1O[C@H](C(=O)O)[C@@H](O)[C@H]1O [Compound 99, adenosine 5'-Carboxylic acid (5'-Carboxyladenosine)]
Ki: 1100 µM

OC[C@H]1O[C@@H](n2cnc3ccccc32)[C@H](O)[C@@H]1O [Compound 84, Benzimidazole riboside ("1,3-dideazapurine riboside")]
inhibition at 1000 µM: < 10%

CSc1ncnc2c1nnn2[C@@H]1O[C@H](CO)[C@@H](O)[C@H]1O [Compound 83, 8-Aza-6-methylmercaptopurine riboside]
Ki: 130 ± 40 µM

Nc1ncnc2c1ncn2[C@@H]1O[C@H](CO)[C@@H](O)[C@@H]1O [Compound 86, Adenine arabinoside (ara-A)]
Ki: 3000 µM | Decrease in binding to T. gondii adenosine kinase: 430 fold

CSC[C@H]1O[C@@H](n2cnc3c(N)ncnc32)[C@H](O)[C@@H]1O [Compound 98, 5'-Methylthio-5'-deoxyadenosine]
Ki: 530 ± 230 µM

CC(=O)O[C@@H]1[C@H](OC(C)=O)[C@@H](CO)O[C@H]1n1cnc2c(N)ncnc21 [Compound 109, 2',3'-Di-O-acetyladenosine]
inhibition at 1000 µM: < 10%

OC[C@H]1O[C@@H](n2cnc3c(=[Se])[nH]cnc32)[C@H](O)[C@@H]1O [Compound 23]
Ki [1]: 130 ± 20 µM

Nc1ncnc2c1ccn2[C@@H]1O[C@H](CO)[C@@H](O)[C@H]1O [Compound 51]
Ki [1]: 340 ± 80 µM

Nc1ncnc2c1ncn2C1O[C@H](CO)[C@H](O)[C@@H]1O (some centres unmarked) [Compound 107, Adenine lyxoside]
Ki (read-out: AppKi for inhibition of T. gondii adenosine kinase, 5 μM adenosine, ± range, at least two estimations): 1300 µM | Decrease in binding to T. gondii adenosine kinase: 190 fold

Nc1nc(Cl)nc2c1ncn2[C@@H]1O[C@H](CO)[C@@H](O)[C@H]1O [Compound 7]
Ki: 870 ± 50 µM

NC(=O)c1cn([C@@H]2O[C@H](CO)[C@@H](O)[C@H]2O)c2ncnc(N)c12 [Compound 55, 7-Carboxamido-7-deazaadenosine (Sangivamycin)]
Ki [1]: < 60 µM

OC[C@H]1O[C@@H](n2cnc3c2N=CNC[C@H]3O)[C@H](O)[C@@H]1O [Compound 85, Coformycin]
Ki: 2000 µM

CSc1ncnc2c1cnn2[C@@H]1O[C@H](CO)[C@@H](O)[C@H]1O [Compound 79, 8-Aza-6-methylmercapto-7-deazapurine riboside]
Ki: 140 ± 30 µM

Nc1ncnc2c1ncn2[C@H]1O[C@@H](CO)[C@H](O)[C@@H]1O [Compound 2]
inhibition at 1000 µM: < 10%

OC[C@H]1O[C@@H](n2cnc3c(S)ncnc32)[C@H](O)[C@@H]1O [Compound 17]
Ki: 5300 µM

Nc1ncnc2c1ncn2[C@@H]1O[C@H](CO)[C@@H](O)[C@H]1O [Compound 1]
Ki: 7 ± 3.3 µM

O=[N+]([O-])c1ccc(C[Se]c2ncnc3c2ncn3[C@@H]2O[C@H](CO)[C@@H](O)[C@H]2O)cc1 [Compound 24]
Ki [1]: 84 ± 46 µM

CNc1ncnc2c1ncn2[C@H]1C[C@H](O)[C@@H](CO)O1 [Compound 117, N^6 -Methyl-2'-deoxyadenosine]
inhibition at 1000 µM: < 10%

OC[C@H]1O[C@@H](n2ncc3c(=S)[nH]cnc32)[C@H](O)[C@@H]1O [Compound 78, 8-Aza-6-mercapto-7-deazapurine riboside]
inhibition at 1000 µM: < 10%

CN(C)c1ncnc2c1ncn2[C@@H]1O[C@H](CO)[C@@H](N)[C@H]1O [Compound 119, N^6 -Dimethyl-3'-amino-3'-deoxyadenosine]
Ki [1]: 540 ± 80 µM

CC(C)CC[C@H]1O[C@@H](n2cnc3c(N)ncnc32)[C@H](O)[C@@H]1O [Compound 101, 5'-Isobutyl-5'-deoxyadenosine]
Ki: 410 ± 90 µM

Nc1nc(Cl)c2ncn([C@@H]3O[C@H](CO)[C@@H](O)[C@H]3O)c2n1 [Compound 63]
Ki: 1800 µM

Nc1ncnc2c1ncn2[C@@H]1O[C@H](CO)[C@H](O)[C@H]1O [Compound 92, Adenine xyloside]
Ki: 1400 µM | Decrease in binding to T. gondii adenosine kinase: 200 fold

OC[C@H]1O[C@@H](n2cnc3c(I)ncnc32)[C@H](O)[C@@H]1O [Compound 14]
Ki: 18 ± 1 µM

OC[C@H]1O[C@@H](n2cc(Br)c3c(NO)ncnc32)[C@H](O)[C@@H]1O [Compound 70, N^6 -Hydroxy-7-bromo-7-deazaadenosine]
Ki: 37 ± 9 µM

CNc1ncnc2c1c(C(N)=S)cn2[C@@H]1O[C@H](CO)[C@@H](O)[C@H]1O [Compound 71, N^6 -Methyl-7-thiocarboxyamido-7-deazaadenosine]
Ki: 150 ± 1 µM

NC(=NO)c1cn([C@@H]2O[C@H](CO)[C@@H](O)[C@H]2O)c2ncnc(N)c12 [Compound 56]
Ki: 200 ± 6 µM

Nc1ncnc2c1cnn2[C@@H]1O[C@H](CO)[C@@H](O)[C@H]1O [Compound 72, 8-Aza-7-deazaadenosine]
Ki: 1700 µM

Nc1nc(F)nc2c1ncn2[C@@H]1O[C@H](CO)[C@@H](O)[C@H]1O [Compound 8]
Ki [1]: 3000 µM

CO[C@H]1[C@@H](O)[C@H](n2cnc3c(N)ncnc32)O[C@@H]1CO [Compound 91, 3'-O-Methyladenosine]
inhibition at 1000 µM: < 10% | Effect on binding to T. gondii adenosine kinase, in words (relative to adenosine): abolishes

O=c1[nH]cnc2c1ncn2[C@@H]1O[C@H](CO)[C@@H](O)[C@H]1O [Compound 15]
inhibition at 1000 µM: < 10%

CC(C)=CCCC(C)=CCNc1ncnc2c1ncn2[C@@H]1O[C@H](CO)[C@@H](O)[C@H]1O [Compound 41]
Ki: 100 ± 5 µM

CCNc1ncnc2c1ncn2[C@@H]1O[C@H](CO)[C@@H](O)[C@H]1O [Compound 28]
Ki: 100 ± 3 µM

C/C(=C\CNc1ncnc2c1ncn2[C@@H]1O[C@H](CO)[C@@H](O)[C@H]1O)CO [Compound 34]
Ki: 280 ± 20 µM

Nc1ncnc2c1ncn2[C@@H]1O[C@H](C(=O)NC2CC2)[C@@H](O)[C@H]1O [Compound 104, 5'-N-(Cyclopropyl)carboxamidoadenosine]
Ki [1]: 1100 µM

CCNC(=O)[C@H]1O[C@@H](n2cnc3c(N)ncnc32)[C@H](O)[C@@H]1O [Compound 103, 5'-N-(Ethyl)carboxamidoadenosine]
inhibition at 1000 µM: < 10%

N#Cc1cn([C@@H]2O[C@H](CO)[C@@H](O)[C@H]2O)c2ncnc(N)c12 [Compound 54]
Ki [1]: 21 ± 2 µM

Nc1ncnc2c1ncn2[C@@H]1O[C@H](CO)C[C@H]1O [Compound 90, 3'-Deoxyadenosine (Cordycepin)]
Ki: 1100 µM

O=C(Nc1ncnc2c1ncn2[C@H]1C[C@H](O)[C@@H](CO)O1)c1ccccc1 [Compound 118, N^6 -Benzoyl-2'-deoxyadenosine]
Ki: 590 ± 20 µM
